Entries after “also recorded” stand apart in the source; their conditions may differ.
Key:
STAM mice [1] = assay: STAM model: whole blood and plasma biochemistry; type: in vivo; details: for Whole Blood Glucose Levels: non-fasting, 5-9 wks
Experimental: (§1) NASH-HCC (STAM™) Model. C57BL/6 (15-day-pregnant female) mice are obtained from Charles River Laboratories Japan (Kanagawa, Japan). Male pups are selected for the study. NASH is induced in male mice by a single subcutaneous injection of 200 μg streptozotocin (STZ, Sigma-Aldrich, USA) solution 2 days after birth, followed by feeding a HFD (57 kcal % fat, cat#: HFD32, CLEA Japan, Japan) beginning at 4 weeks of age. At 5 weeks of age, mice are divided into a control group and one or more treated group (generally 8 mice per group). Animals are sacrificed at 9 weeks of age, and biochemical, histological, and gene expression analyses are performed.
(§2) During weeks 5-9 (starting at day 35±2), test compound is administered (generally orally) at various doses diluted to 10 mL/kg and according to various dosing protocols to treatment groups (8 mice each) while a second group (8 mice) is administered vehicle only. Animals are sacrificed at 9 weeks.
Measurement of whole blood and plasma biochemistry. Non-fasting blood glucose was measured in whole blood using LIFE CHECK (EIDIA, Japan). For plasma biochemistry, blood was collected in polypropylene tubes with anticoagulant (Novo-Heparin, Mochida Pharmaceutical, Japan) and centrifuged at 1,000×g for 15 minutes at 4° C. The supernatant was collected and stored at −80° C. until use. Plasma ALT levels were measured by FUJI DRI-CHEM 7000 (Fujifilm, Japan). Plasma insulin, MIF and IL-22 were quantified by Ultra Sensitive Mouse Insulin ELISA Kit (Morinaga Institute of Biological science, Japan), Mouse Macrophage Migration Inhibitory Factor (MIF) ELISA (Kamiya Biomedical, USA), Quantikine ELISA Mouse/Rat IL-22 Immunoassay kit (R&D Systems, USA), respectively.
(§3) Illustrative dose response test groups. Group 1-Normal. Eight normal mice are fed with a normal diet ad libitum without any treatment until 9 weeks of age. Group 2-Vehicle. Eight NASH mice are orally administered vehicle (0.5% w/v methylcellulose+0.2% Tween®80) in a volume of 10 mL/kg twice daily from 5 to 9 week of age. Group 3-solithromycin 5 mg/kg. Eight NASH mice are orally administered vehicle supplemented with solithromycin at a dose of 5 mg/kg in the morning and the vehicle in the evening (5 mg/kg/day) from 5 to 9 weeks of age. Group 4-solithromycin 10 mg/kg. Eight NASH mice are orally administered vehicle supplemented with solithromycin at a dose of 10 mg/kg twice daily (20 mg/kg/day) from 5 to 9 weeks of age. Group 5-solithromycin 25 mg/kg. Eight NASH mice are orally administered vehicle supplemented with solithromycin at a dose of 25 mg/kg twice daily (50 mg/kg/day) from 5 to 9 weeks of age. Group 6-solithromycin 50 mg/kg. Eight NASH mice are orally administered vehicle supplemented with solithromycin at a dose of 50 mg/kg once daily (50 mg/kg/day) from 5 to 9 weeks of age.

STAM mice [2] = assay: STAM model: Sirius red staining, fibrosis area; type: in vivo; details: for Sirius red-positive area (% of area showing fibrosis): STAM mice liver
Experimental: as §1, §2
To visualize collagen deposition (a measure of fibrosis), Bouin's fixed left lateral liver sections are stained using picro-Sirius red solution (Waldeck, Germany).
For quantitative analysis of fibrosis area, bright field images of Sirius red-stained sections are captured around the central vein using a digital camera (DFC280; Leica, Germany) at 200-fold magnification, and the positive areas in 5 fields/section are measured using ImageJ software (National Institute of Health, USA). For quantitative analysis of inflammation area, bright field images of F4/80-immunostained sections are captured around the central vein using a digital camera (DFC280; Leica, Germany) at 200-fold magnification, and the positive areas in 5 fields/section are measured using ImageJ software (National Institute of Health, USA).
as §3

human FXR = assay: FXR reporter cell assays (agonist and antagonist); type: cell-based; details: reporter cells, from 30 μM, 1:3 dilutions
Experimental: FXR Signal Pathway. […] Solithromycin is tested in reporter cell assays expressing a hybrid FXR receptor (Indigo Biosciences, PA). Agonist and antagonist activity is measured. Solithromycin is tested starting at 30 μM and continuing with 1:3 dilutions. […] Without being bound by theory, it is believed herein that dependence upon the FXR pathway for activity in treating the diseases described herein may lead to increased triglycerides (TGs) and low density lipids (LDL) as an unwanted side effects. For example, patients with various forms of FLD may be at risk for cardiovascular disease, which may be aggravated by increased triglycerides and low density lipids.

In the case of CC[C@H]1OC(=O)[C@@](C)(F)C(=O)[C@H](C)[C@@H](O[C@@H]2O[C@H](C)C[C@H](N(C)C)[C@H]2O)[C@](C)(OC)C[C@@H](C)C(=O)[C@H](C)[C@H]2N(CCCCn3cc(-c4cccc(N)c4)nn3)C(=O)O[C@]12C [solithromycin], the “Plasma ALT” value (STAM mice [1]; 5 mg/kg q.d.) is reported as 52 ± 78 U/L, the “Plasma IL-22” value (STAM mice [1]; 5 mg/kg q.d.) is reported as 31.8 ± 1.6 pg/mL and the Plasma insulin (STAM mice [1]; 5 mg/kg q.d.) is reported as 0.25 ± 0.10 ng/mL. For the same compound, the “Plasma MIF” value (STAM mice [1]; 5 mg/kg q.d., 5 mg/kg) was “no statistically significant differences”, the “Plasma MIF” value (STAM mice [1]; 5 mg/kg q.d., listed as SOLI, 5 mg/kg) was 4665 ± 2131 pg/mL and the “Plasma ALT” value (STAM mice [1]; 10 mg/kg b.i.d.) was 31 ± 19 U/L. The “Plasma IL-22” value (STAM mice [1]; 10 mg/kg b.i.d.) was 33.0 ± 5.0 pg/mL, the Plasma insulin (STAM mice [1]; 10 mg/kg b.i.d.) was 0.41 ± 0.35 ng/mL and the “Plasma MIF” value (STAM mice [1]; 10 mg/kg b.i.d., 10 mg/kg) was “no statistically significant differences”. For the same compound, the “Plasma MIF” value (STAM mice [1]; 10 mg/kg b.i.d., listed as SOLI, 10 mg/kg) was 4852 ± 1720 pg/mL, the “Plasma ALT” value (STAM mice [1]; 25 mg/kg b.i.d.) was 34 ± 14 U/L and the “Plasma IL-22” value (STAM mice [1]; 25 mg/kg b.i.d.) was 33.8 ± 7.2 pg/mL. For the same compound, the Plasma insulin (STAM mice [1]; 25 mg/kg b.i.d.) was 0.41 ± 0.22 ng/mL, the “Plasma MIF” value (STAM mice [1]; 25 mg/kg b.i.d., 25 mg/kg) was “significantly increased” and the “Plasma MIF” value (STAM mice [1]; 25 mg/kg b.i.d., listed as SOLI, 25 mg/kg) was 11748 ± 7633 pg/mL. The “Plasma IL-22 levels compared to vehicle group” value (STAM mice [1]; any doses) was “no statistically significant differences”, the “Plasma insulin levels compared to vehicle group” value (STAM mice [1]; any doses) was “no statistically significant differences; also recorded: not significantly affected” and the “Plasma ALT levels compared to vehicle group” value (STAM mice [1]; any doses (Groups 3-6)) was “no significant differences”. For the same compound, the “Whole Blood Glucose Levels” value (STAM mice [1]; 5 mg/kg q.d. oral, 5 mg/kg) was “no statistically significant differences”, the “Whole Blood Glucose Levels” value (STAM mice [1]; 5 mg/kg q.d. oral, listed as SOLI, 5 mg/kg) was 726 ± 101 mg/dL and the “Whole Blood Glucose Levels” value (STAM mice [1]; 5 mg/kg q.d. oral, listed as Solithromycin, 5 mg/kg) was 726 ± 101 mg/dL. For the same compound, the “Whole Blood Glucose Levels” value (STAM mice [1]; 10 mg/kg b.i.d. oral, 10 mg/kg) was “no statistically significant differences”, the “Whole Blood Glucose Levels” value (STAM mice [1]; 10 mg/kg b.i.d. oral, listed as SOLI, 10 mg/kg) was 713 ± 172 mg/dL and the “Whole Blood Glucose Levels” value (STAM mice [1]; 10 mg/kg b.i.d. oral, listed as Solithromycin, 10 mg/kg) was 713 ± 172 mg/dL. For the same compound, the “Whole Blood Glucose Levels” value (STAM mice [1]; 25 mg/kg b.i.d. oral, 25 mg/kg) was “Statistically significant blood glucose decrease”, the “Whole Blood Glucose Levels” value (STAM mice [1]; 25 mg/kg b.i.d. oral, listed as SOLI, 25 mg/kg) was 497 ± 259 mg/dL and the “Whole Blood Glucose Levels” value (STAM mice [1]; 25 mg/kg b.i.d. oral, listed as Solithromycin, 25 mg/kg) was 497 ± 259 mg/dL. For the same compound, the “Whole Blood Glucose Levels” value (STAM mice [1]; 50 mg/kg q.d. oral, 50 mg/kg) was “Statistically significant blood glucose decrease”, the “Whole Blood Glucose Levels” value (STAM mice [1]; 50 mg/kg q.d. oral, listed as Solithromycin, 50 mg/kg) was 380 ± 170 mg/dL and the “Sirius red-positive area (% of area showing fibrosis)” value (STAM mice [2]; 5 mg/kg) was “no statistically significant differences”. For the same compound, the “Sirius red-positive area (% of area showing fibrosis)” value (STAM mice [2]; 5 mg/kg, listed as SOLI) was 0.85 ± 0.28%, the “Sirius red-positive area (% of area showing fibrosis)” value (STAM mice [2]; 10 mg/kg) was “tended to decrease” and the “Sirius red-positive area (% of area showing fibrosis)” value (STAM mice [2]; 10 mg/kg, listed as SOLI) was 0.72 ± 0.27%. For the same compound, the “Sirius red-positive area (% of area showing fibrosis)” value (STAM mice [2]; 25 mg/kg) was “significantly decreased; also recorded: Statistically significant reduced fibrosis”, the “Sirius red-positive area (% of area showing fibrosis)” value (STAM mice [2]; 25 mg/kg, listed as SOLI) was 0.65 ± 0.27 % and the “Fibrosis area (Sirius red-positive area) compared to vehicle group” value (STAM mice [2]; STAM mice, Group 6 (50 mg/kg q.d.)) was “significantly decreased”. The Agonist activity (human FXR; hybrid FXR receptor) was “not show agonistic activity”, the Antagonist activity (human FXR; hybrid FXR receptor) was “nor significant antagonistic activity” and the “Cytotoxicity in the antagonist assays” value (human FXR) was “does not show evidence of cytotoxicity”.

Source: US20170165286A1, “COMPOSITIONS AND METHODS FOR TREATING DIABETES AND LIVER DISEASES” (Cempra Pharmaceuticals, Inc., priority 2014, published 2017)
